Results taken from patent publication US12578343B2, “Selective ACKR3 modulators and uses thereof” (Luxembourg Institute of Health (LIH), priority 2019, dated 2026).

Assays:
[1] = test system: smNPCs; assay: Uptake of labelled dynorphin A (1-13) by smNPCs, imaging flow cytometry; assay type: cell-based, human; conditions: 3 μM, 15 minutes pre-treatment
Protocol: U87 cells derived from human brain glioblastoma were obtained through the NIH AIDS Reagent Program from Dr. Deng and Dr. Littman. U87 stably expressing ACKR3 and CXCR4 were generated as previously described in Szpakowska, M. et al. Different contributions of chemokine N-terminal features attest to a different ligand binding mode and a bias towards activation of ACKR3/CXCR7 compared with CXCR4 and CXCR3. Br J Pharmacol 175, 1419-1438 (2018). U87 cells were grown in Dulbecco's modified Eagle medium (DMEM) supplemented with 15% foetal bovine serum and penicillin/streptomycin (100 Units/ml and 100 μg/ml). U87-ACKR3 and U87-CXCR4 were maintained under puromycin (1 μg/ml) selective pressure. smNPCs (small molecule neural precursor cells) derived from a healthy donor (C1-1) whose informed consent was obtained, were grown on Geltrex™-coated surface in N2B27 medium supplemented with 0.5 μM Purmorphamine, 3 μM CHIR 99021 and 150 μM ascorbic acid. N2B27 medium consisted of DMEM/F12 and NeuroBasal medium 50:50 with 0.5% N2 supplement, 1% B27 supplement lacking vitamin A, 1% GlutaMAX and 1% penicilin/streptomycin. Medium was renewed every other day.
Cells were distributed into 96-well plates (2×10^5 cells/well in Opti-MEM for U87 and U87-ACKR3 and 3×10^5 cells/well in N2B27 medium for smNPCs). […] For comparison of labelled opioid peptide-uptake by ACKR3 or classical opioid receptors, 1.2×10^6 U87 cells were seeded in 10-cm dishes and transfected 48 hours later with 4 μg pcDNA3.1 plasmid encoding ACKR3 or KOR, MOR or NOP. 48 hours post transfection, cells were harvested and treated as described above. Dead cells were excluded using Zombie NIR or Zombie Green viability dye (BioLegend) for FAM-labelled peptides and Cy5-labelled peptides, respectively. Images of 1×10^4 in-focus, living single cells were acquired with an ImageStream MKII imaging flow cytometer (Amnis) using 40× magnification (60× magnification for smNPCs). Samples were analysed using Ideas6.2 software. The number of spots per cell was determined using a mask-based software wizard.

[2] = biological target: T1, NOP (Homo sapiens, UniProt P41146); assay: β-arrestin-1 recruitment to NOP (NanoBiT, U87 cells); assay type: cell-based; conditions: concentrations as high as 3 μM
T1 construct: expressed in transfected cells; host or cells: U87 cells, transient co-transfection of pNBe vectors
Protocol: (§1) In brief, 1.2×10^6 U87 cells were plated in 10 cm-culture dishes and 48 hours later co-transfected with pNBe vectors encoding GPCRs C-terminally tagged to SmBiT and human β-arrestin-1 or -2 or mini G proteins (mG, engineered GTPase domains of Gα subunits,) N-terminally fused to LgBiT. 48 hours post-transfection cells were harvested, incubated 25 minutes at 37° C. with Nano-Glo Live Cell substrate diluted 200-fold and distributed into white 96-well plates (5×10^4 cells per well). Ligand-induced, β-arrestin and mG recruitment to GPCRs was evaluated with a Mithras LB940 luminometer (Berthold Technologies) for 20 minutes. For concentration-response curves, the signal recorded with a saturating concentration of full agonist for each receptor was set as 100%.

[3] = test system: 24 other chemokine receptors; assay: β-arrestin recruitment to all other chemokine receptors (panel, NanoBiT, U87 cells); assay type: cell-based, human; conditions: 3 μM
Protocol: as §1

[4] = biological target: T2, DOR (Homo sapiens, UniProt P41143); assay: β-arrestin-1 recruitment to DOR (NanoBiT, U87 cells); assay type: cell-based; conditions: concentrations as high as 3 μM
T2 construct: expressed in transfected cells; host or cells: U87 cells, transient co-transfection of pNBe vectors
Protocol: as §1

[5] = biological target: KOR (Homo sapiens, UniProt P41145); assay: β-arrestin-1 recruitment to KOR (NanoBiT, U87 cells); assay type: cell-based; parameters: expressed in transfected cells; host or cells: U87 cells, transient co-transfection of pNBe vectors; conditions: concentrations as high as 3 μM
Protocol: as §1

[6] = biological target: T3, ACKR3 (Homo sapiens, UniProt P25106); assay type: cell-based; parameters: expressed in transfected cells; host or cells: U87 cells, transient co-transfection of pNBe vectors
Target sequence in this assay (P25106 whole entry): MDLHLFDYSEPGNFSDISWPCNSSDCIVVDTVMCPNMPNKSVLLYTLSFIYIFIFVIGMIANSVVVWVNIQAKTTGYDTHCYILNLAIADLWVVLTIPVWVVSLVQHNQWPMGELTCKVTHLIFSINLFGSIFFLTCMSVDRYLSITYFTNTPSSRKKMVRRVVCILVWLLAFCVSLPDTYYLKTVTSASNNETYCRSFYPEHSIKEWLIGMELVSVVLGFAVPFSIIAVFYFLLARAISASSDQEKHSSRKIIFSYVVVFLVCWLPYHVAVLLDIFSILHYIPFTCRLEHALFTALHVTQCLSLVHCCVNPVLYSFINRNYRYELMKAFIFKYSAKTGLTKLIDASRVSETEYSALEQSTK
Target sequence in this assay (P49407 whole entry partner): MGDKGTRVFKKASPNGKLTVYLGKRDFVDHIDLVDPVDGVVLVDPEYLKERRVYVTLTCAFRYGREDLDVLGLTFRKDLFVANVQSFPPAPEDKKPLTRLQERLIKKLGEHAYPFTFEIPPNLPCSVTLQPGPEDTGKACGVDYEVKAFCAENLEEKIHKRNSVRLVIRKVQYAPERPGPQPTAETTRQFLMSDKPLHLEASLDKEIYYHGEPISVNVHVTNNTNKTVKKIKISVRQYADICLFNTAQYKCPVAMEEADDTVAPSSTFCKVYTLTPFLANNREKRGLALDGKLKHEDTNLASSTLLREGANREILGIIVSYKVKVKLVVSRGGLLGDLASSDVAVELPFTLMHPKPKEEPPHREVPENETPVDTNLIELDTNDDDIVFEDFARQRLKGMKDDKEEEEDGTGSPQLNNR

[7] = biological target: T3, ACKR3; assay: Binding competition with Alexa Fluor 647-labelled CXCL12 on U87-ACKR3 cells, flow cytometry; parameters: expressed in transfected cells; for the receptor comparison in the uptake assay, transient pcDNA3.1); conditions: 5 nM CXCL12-AF647, U87-ACKR3 cells
Protocol: 1.3. Binding Competition Assays
U87-ACKR3 cells were distributed into 96-well plates (1.5×10^5 cells per well) and incubated with a mixture of 5 nM CXCL12-AF647 and unlabelled chemokines or opioid peptides at indicated concentrations for 90 minutes on ice, then washed twice with FACS buffer (PBS, 1% BSA, 0.1% NaN3) at 4° C. Dead cells were excluded using Zombie Green viability dye (BioLegend). ACKR3-negative U87 cells were used to evaluate non-specific binding of CXCL12-AF647. […] The signal obtained for CXCL12-AF647 in the absence of unlabelled chemokines was used to define 100% binding. Ligand binding was quantified by mean fluorescence intensity on a BD FACS Fortessa cytometer (BD Biosciences).
Target sequence in this assay (P25106 whole entry): as the sequence (P25106 whole entry) above

[8] = biological target: T3, ACKR3; assay: Uptake of fluorescently labelled opioid peptides by ACKR3-expressing U87 cells, imaging flow cytometry; assay type: cell-based; parameters: expressed in transfected cells; for the receptor comparison in the uptake assay, transient pcDNA3.1); conditions: saturating concentration of LIH383 (3 μM)
Target sequence in this assay (P25106 whole entry): as above
Description: Visualization of Fluorescently Labelled Opioid Peptides Uptake by Imagestream

T2 sequence (P41143 whole entry): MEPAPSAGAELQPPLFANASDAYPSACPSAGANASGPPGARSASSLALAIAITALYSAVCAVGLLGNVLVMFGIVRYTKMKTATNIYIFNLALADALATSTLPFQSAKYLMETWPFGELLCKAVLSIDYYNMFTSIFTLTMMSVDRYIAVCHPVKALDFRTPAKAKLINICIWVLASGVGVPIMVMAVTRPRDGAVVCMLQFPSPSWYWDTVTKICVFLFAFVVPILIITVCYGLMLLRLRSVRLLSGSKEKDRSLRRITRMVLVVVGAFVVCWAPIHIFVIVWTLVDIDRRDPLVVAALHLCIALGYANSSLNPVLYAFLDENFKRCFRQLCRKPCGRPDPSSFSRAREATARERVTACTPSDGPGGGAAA
T1 sequence (P41146 whole entry): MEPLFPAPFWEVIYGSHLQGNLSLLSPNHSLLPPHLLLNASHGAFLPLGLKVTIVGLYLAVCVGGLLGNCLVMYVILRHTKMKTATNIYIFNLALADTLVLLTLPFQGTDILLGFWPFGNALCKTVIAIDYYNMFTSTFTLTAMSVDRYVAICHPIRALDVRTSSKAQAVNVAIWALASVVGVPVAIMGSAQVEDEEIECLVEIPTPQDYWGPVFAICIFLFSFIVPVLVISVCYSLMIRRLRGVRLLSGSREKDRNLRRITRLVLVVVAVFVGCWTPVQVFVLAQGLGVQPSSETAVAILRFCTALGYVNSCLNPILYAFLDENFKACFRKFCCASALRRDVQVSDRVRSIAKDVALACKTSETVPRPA
KOR, sequence (P41145 whole entry): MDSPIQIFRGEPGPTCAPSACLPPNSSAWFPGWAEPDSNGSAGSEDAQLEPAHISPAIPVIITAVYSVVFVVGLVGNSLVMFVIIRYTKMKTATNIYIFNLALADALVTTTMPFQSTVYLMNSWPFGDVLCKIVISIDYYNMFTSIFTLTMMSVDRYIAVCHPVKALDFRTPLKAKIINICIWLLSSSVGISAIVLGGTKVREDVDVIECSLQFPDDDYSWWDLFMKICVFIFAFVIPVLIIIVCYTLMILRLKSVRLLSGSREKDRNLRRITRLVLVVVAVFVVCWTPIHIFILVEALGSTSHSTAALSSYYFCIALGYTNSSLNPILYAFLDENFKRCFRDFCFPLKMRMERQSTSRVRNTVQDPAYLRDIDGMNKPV

CSCC[C@H](NC(=O)[C@H](Cc1ccccc1)NC(=O)CNC(=O)CNC(=O)[C@@H](N)Cc1ccccc1)C(=O)N[C@@H](CCCNC(=N)N)C(=O)N[C@@H](CCCNC(=N)N)C(=O)N[C@@H](CCCCN)C(N)=O [LIH383]
effect of pretreatment on uptake of labelled dynorphin A (1-13) by smNPCs [1]: significantly reduced | activation or inhibition of NOP [2]: no activation or inhibition | β-arrestin recruitment to the other chemokine receptors [3]: no activation or inhibition | activation or inhibition of DOR [4]: no activation or inhibition | activation or inhibition of KOR [5]: no activation or inhibition | EC50 (range in words) [6]: subnanomolar range | potency relative to known ACKR3 agonists such as compound 18 [6]: 20 times | competition with CXCL12-AF647 for ACKR3 binding [7]: low nanomolar concentrations | dynorphin A-FAM uptake by U87-ACKR3 cells compared to U87-ACKR3 cells pre-incubated with LIH383 [8]: notably higher number of distinguishable vesicle-like structures and mean fluorescent intensity
